Converted amounts (≈) assume the structure as drawn. Read-outs that look alike come from different tables or passages of the source.
How the values were obtained:
FL human-amnion cells = assay: Cytotoxicity on FL cells (cell proliferation inhibition); format: cell-based; conditions: Homo sapiens, 72 h, read-out: IC50 (50% cell proliferation inhibitory concentration)
Method: Whether test chemicals would inhibit growth of cells was examined.
A 1,000 μg/ml aqueous solution of each of the test chemicals was serially diluted twofold with Eagle's minimum essential medium.
FL human-amnion cells (2×10^4 cells) were suspended in 3.6 ml of 10% FBS-MEM medium, put in petri dishes (diameter 60 mm) for tissue culture, and cultivated at 37° C. in 5% CO2 humidified atmosphere for 48 hours. The test chemical solution prepared as above was added in an amount of 0.4 ml to each of the petri dishes in predetermined concentrations, and the cells were cultivated for 3 days. After the cultivation, the medium was removed, and the remainder was washed once with Dulbecco's phosphate buffer (pH 7.4). The cells were peeled off by adding 0.2 ml of a 2.5% trypsin-0.002% EDTA mixed solution (1:9) and properly diluted with 10% FBS-MEM medium. Then, the number of the cells was counted by an Erma hemocytometer.
The cell proliferation rate was calculated by following formula [formula]

A. laidlawii PG8 = assay: Anti-mycoplasmal activity (MIC), agar-dilution method; format: cell-based; conditions: Acholeplasma laidlawii
Method: (§1) The minimum growth inhibitory concentrations (MIC; μg/ml) of the test chemicals were measured by the agar-dilution method.
(§2) (1) Preparation of a mycoplasma suspension for inoculation
(§3) A stored frozen suspension of mycoplasma (0.2 to 0.3 ml) was inoculated in 2 to 3 ml of a preculture medium to be described later. It was serially diluted tenfold until the dilution ratio reached 10,000 times. These diluted solutions were cultivated at 37° C. for 2 to 7 days. A culture having the highest dilution ratio was selected from those cultures in which a color change of the media was noted as a result of mycoplasma growth. It was diluted to 100 times with the preculture medium to prepare a mycoplasma suspension for inoculation.
(§4) The following preculture media were used.
(§5) For Mycoplasma pneumoniae and Acholeplasma laidlawii, Chanock liquid medium containing 0.5% glucose (pH 7.8) [Library of Bacteriology 2, "Procedures for Isolation and Identification of Human, Animal and Plant Mycoplasmas", edited by Japanese Society for Bacteriology, page 8 (1982), Saikon Publishing Co.] was used.
(§6) (2) Preparation of agar plates containing the test chemicals
(§7) A 1,000 μg/ml aqueous solution of each test chemical was prepared (a difficultly-soluble chemical was dissolved by adding an equimolar amount of sodium hydroxide; the same applies hereinafter). The solution was used as a base solution and its twofold serial dilutions were prepared. The diluted solutions were pipetted on plastic petri dishes each in an amount of 1 ml. The Chanock agar medium (for Mycoplasma hyorhinis, 0.5% mucin was further added) described at page 9 of the above cited "Procedures for Isolation and Identification of Human, Animal and Plant Mycoplasmas" was heated and kept at 55° C. and put in an amount of 9 ml in each of the petri dishes containing the test chemicals and fully mixed with the test chemicals to prepare agar plates containing the test chemicals.
(§8) The mycoplasma suspension for inoculation prepared by the procedure described in section (1) was inoculated in an amount of about 3 microliters on each of the chemical-containing agar plates by means of a Cathra-replicator (3 mm pin). The plates on which Mycoplasma pneumoniae, Mycoplasma arginini, and Acholeplasma laidlawii and Mycoplasma hyorhinis were inoculated were tightly packed in a plastic bag together with the plasic petri dishes including water-immersed absorbent cotton. Mycoplasma pneumoniae was aerobically cultivated at 37° C. under highly humid conditions for 7 days; and Mycoplasma arginini and Acholeplasma laidlawii, for 2 days. The other mycoplasma species were cultivated anaerobically for 2 days by using a GasPak anaerobic system (BBL). After the cultivation, growth of mycoplasma were observed under an OLYMPUS microscope (20-100 X). The lowest concentration of the test chemical at which no growth of mycoplasma was noted is defined as MIC.

M. salivarium PG20 = assay: as above; format: cell-based, Mycoplasma salivarium; conditions: Metamycoplasma salivarium
Method: as §1, §2, §3, §4
(§9) For other mycoplasma species, Chanock liquid medium (pH 6.8) containing 0.2% arginine was used.
as §6, §7, §8

A. laidlawii PG-8 = assay: Anti-mycoplasmal activity (MIC, MMC), liquid dilution method; format: cell-based; conditions: Acholeplasma laidlawii
Method: (§10) The minimum growth inhibitory concentration (MIC, μg/ml) and minimum mycoplasmacidal concentration (MMC, μg/ml) of test chemicals were measured by the liquid dilution method. The method of measuring MIC in this example differs from that used in Test Example 1.
(§11) A 1,000 μg/ml aqueous solution of a test chemical was prepared, and diluted to 5 times with a preculture medium. The dilution (200 μg/ml) was serially diluted twofold with the same medium in a 8-well reservoir. Fifty microliters of each diluted solution was distributed in the wells of a microplate. A well to which no test chemical was added was used as a control.
(§12) A mycoplasma suspension for inoculation prepared as in Test Example 1 was pipetted in an amount of 50 microliters to each of the wells. The microplates were sealed by a plate seal, shaken by a micromixer, and cultivated at 37° C. for 5 days. In the control to which no test chemical was added, color change of the medium by the growth of mycoplasma was observed after two days from the start of the cultivation. At this time, 3 microliters of the liquid culture was inoculated in drug-free Chanock agar medium by using a Cathra-replicator. The liquid culture and the agar medium were further cultivated at 37° C. for 3 days (anaerobically in the case of M. orale, and aerobically in the case of A. laidlawii and M. arginini). MIC and MMC were determined from the results of observation on the 5th day. MIC was defined as the lowest concentration of the test chemical at which growth of mycoplasma in the drug-containing liquid medium was not noted, and MMC, as that in the drug-free agar medium.

M. pnumoniae Mac = assay: Anti-mycoplasmal activity (MIC), agar-dilution method; format: cell-based, Mycoplasma pneumoniae; conditions: Mycoplasma
Method: as §1, §2, §3, §4, §5, §6, §7, §8

M. orale CH19299 = assay: as above; format: cell-based, Mycoplasma orale; conditions: Metamycoplasma orale
Method: as §1, §2, §3, §4, §9, §6, §7, §8

M. orale CH-19299 = assay: Anti-mycoplasmal activity (MIC, MMC), liquid dilution method; format: cell-based, Mycoplasma orale; conditions: Metamycoplasma orale
Method: as §10, §11, §12

M. arginini G-230 = assay: as above; format: cell-based, Mycoplasma arginini; conditions: Mycoplasmopsis arginini
Method: as §10, §11, §12

M. hyorhinis BST7 = assay: Anti-mycoplasmal activity (MIC), agar-dilution method; format: cell-based, Mycoplasma hyorhinis; conditions: Mesomycoplasma hyorhinis
Method: as §1, §2, §3, §4
For Mycoplasma hyorhinis, a liquid medium (pH 7.8) for isolation of Mycoplasma hyorhinis [Journal of the Japan Veterinary Medical Association,32, 34-38 (1979)] was used.
as §6, §7, §8

M. arginini G230 = assay: as above; format: cell-based, Mycoplasma arginini; conditions: Mycoplasmopsis arginini
Method: as §1, §2, §3, §4, §9, §6, §7, §8

mycoplasma = conditions: in words, background; cited from earlier work

O=C(O)c1cn(C2CC2)c2cc(N3CCNCC3)c(F)cc2c1=O [Compound 2, ciprofloxacin]
IC50 (FL human-amnion cells): 28 µg/mL (≈ 84.5 µM)
MIC (A. laidlawii PG8; PG8): 0.39 µg/mL (≈ 1.18 µM)
MIC (M. salivarium PG20; PG20): 3.13 µg/mL (≈ 9.45 µM)
MIC (A. laidlawii PG-8; PG8): 0.39 µg/mL (≈ 1.18 µM)
MBC (A. laidlawii PG-8; PG8, 120 h, read-out: MMC): 0.39 µg/mL (≈ 1.18 µM)
MIC (M. pnumoniae Mac): 0.39 µg/mL (≈ 1.18 µM)
MIC (M. orale CH19299; CH19299): 1.56 µg/mL (≈ 4.71 µM)
MIC (M. orale CH-19299; CH19299): 1.56 µg/mL (≈ 4.71 µM)
MBC (M. orale CH-19299; CH19299, 120 h, read-out: MMC): 1.56 µg/mL (≈ 4.71 µM)
MIC (M. arginini G-230; G230): 0.78 µg/mL (≈ 2.35 µM)
MBC (M. arginini G-230; G230, 120 h, read-out: MMC): 0.78 µg/mL (≈ 2.35 µM)
MIC (M. hyorhinis BST7; BST7): 0.78 µg/mL (≈ 2.35 µM)
MIC (M. arginini G230; G230): 0.78 µg/mL (≈ 2.35 µM)

CC1COc2c(N3CCN(C)CC3)c(F)cc3c(=O)c(C(=O)O)cn1c23 (stereo not drawn) [Compound 4]
MIC (A. laidlawii PG8; agar dilution, A. laidlawii PG8, read-out: MIC): 0.78 µg/mL (≈ 2.16 µM)
MIC (M. salivarium PG20; agar dilution, M. salivarium PG20, read-out: MIC): 6.25 µg/mL (≈ 17.3 µM)
MIC (M. pnumoniae Mac; agar dilution, M. pnumoniae Mac, read-out: MIC): 0.78 µg/mL (≈ 2.16 µM)
MIC (M. orale CH19299; agar dilution, M. orale CH19299, read-out: MIC): 1.56 µg/mL (≈ 4.32 µM)
MIC (M. hyorhinis BST7; agar dilution, M. hyorhinis BST7, read-out: MIC): 3.13 µg/mL (≈ 8.66 µM)
MIC (M. arginini G230; agar dilution, M. arginini G230, read-out: MIC): 0.78 µg/mL (≈ 2.16 µM)

C=C[C@]1(C)C[C@@H](OC(=O)CSCCN(CC)CC)[C@]2(C)[C@H](C)CC[C@]3(CCC(=O)[C@H]32)[C@@H](C)[C@@H]1O [tiamulin]
minimum growth inhibitory concentration (MIC) for mycoplasma (mycoplasma): low
mode of action on mycoplasma (mycoplasma): only act bacteriostatically and not mycoplasmacidally

Source: patent US5051419A, “Prevention or elimination of mycoplasma contamination of animal or plant cell cultures” (Dainippon Pharmaceutical Co., Ltd., priority 1988, dated 1991)
